Patent US11629145B2, “SHP2 phosphatase inhibitors and methods of use thereof” (Relay Therapeutics, Inc., priority 2016, dated 2023)

Each compound was assayed against SHP2 (Homo sapiens (Human), UniProt Q06124) (assay: SHP2 Allosteric Inhibition Assay). Conditions: 0.25 nM SHP2 activated with 0.5 μM bis-phosphorylated IRS1 peptide; DiFMUP substrate, prompt fluorescence.
Format: biochemical

IC50 [nM] | Structure (SMILES)
< 1000 | CC1(N)CCN(c2cnc3c(Oc4ccccc4)n[nH]c3n2)CC1 [Compound 20]
≥ 10000 | CC1(N)CCN(c2cnc3c(OC4CCCNC4)n[nH]c3n2)CC1 (stereo not drawn) [Compound 21]
< 1000 | CC1(N)CCN(c2cnc3c(OCc4ccccc4)n[nH]c3n2)CC1 [Compound 22]
< 1000 | Cc1cc(Oc2n[nH]c3nc(N4CCC(C)(N)CC4)cnc23)ccn1 [Compound 23]
< 1000 | Cc1cnccc1Oc1n[nH]c2nc(N3CCC(C)(N)CC3)cnc12 [Compound 24]
1000 to 10000 | CC1(N)CCN(c2cnc3c(OCc4cccnc4)n[nH]c3n2)CC1 [Compound 25]
< 1000 | CC1(N)CCN(c2cnc3c(Oc4ccccc4C#N)n[nH]c3n2)CC1 [Compound 26]
< 1000 | CC1(N)CCN(c2cnc3c(Oc4ncccc4C#N)n[nH]c3n2)CC1 [Compound 27]
< 1000 | CC(Oc1n[nH]c2nc(N3CCC(C)(N)CC3)cnc12)c1ccccc1 (stereo not drawn) [Compound 28]
< 1000 | Cc1nccc(Oc2n[nH]c3nc(N4CCC(C)(N)CC4)cnc23)c1C [Compound 29]
< 1000 | CC1(N)CCN(c2cnc3c(OCc4cccnc4N)n[nH]c3n2)CC1 [Compound 30]
< 1000 | CC1(N)CCN(c2cnc3c(Oc4ccccc4Cl)n[nH]c3n2)CC1 [Compound 31]
< 1000 | CC1(N)CCN(c2cnc3c(Oc4ccncc4Cl)n[nH]c3n2)CC1 [Compound 32]
< 1000 | CC1(N)CCN(c2cnc3c(OCc4ccccc4C#N)n[nH]c3n2)CC1 [Compound 33]
< 1000 | CC1(N)CCN(c2cnc3c(Oc4ccc(N)cc4C#N)n[nH]c3n2)CC1 [Compound 34]
1000 to 10000 | CC(=O)N1CCCC(Oc2n[nH]c3nc(N4CCC(C)(N)CC4)cnc23)C1 (stereo not drawn) [Compound 35]
< 1000 | CC1(N)CCN(c2cnc3c(Oc4ccc(N)cc4Cl)n[nH]c3n2)CC1 [Compound 36]
< 1000 | Cc1cc(Oc2n[nH]c3nc(N4CCC(C)(N)CC4)cnc23)c(Cl)cn1 [Compound 37]
< 1000 | Cc1nccc(Oc2n[nH]c3nc(N4CC[C@@H](N)C[C@@H]4C)cnc23)c1Cl [Compound 38]
< 1000 | Cc1nccc(Oc2n[nH]c3nc(N4CCC(C)(N)CC4)cnc23)c1Cl [Compound 39]
< 1000 | CC1(N)CCN(c2cnc3c(OCc4ccncc4Cl)n[nH]c3n2)CC1 [Compound 40]
< 1000 | CC1(N)CCN(c2cnc3c(Oc4cc(N)ncc4Cl)n[nH]c3n2)CC1 [Compound 42]
< 1000 | CC1(CN)CCN(c2cnc3c(Oc4ccnc(N)c4Cl)n[nH]c3n2)C1 (stereo not drawn) [Compound 43]

IC50 [nM] | Structure (SMILES)
1000 to 10000 | CC1(N)CCN(c2cnc3c(Oc4cccc(C(F)F)n4)n[nH]c3n2)CC1 [Compound 44]
< 1000 | CC1(N)CCN(c2cnc3c(Oc4ccnc(O)c4Cl)n[nH]c3n2)CC1 [Compound 45]
< 1000 | CC1(N)CCN(c2cnc3c(OCc4cccc5[nH]ccc45)n[nH]c3n2)CC1 [Compound 46]
< 1000 | COc1nccc(Oc2n[nH]c3nc(N4CCC(C)(N)CC4)cnc23)c1C#N [Compound 47]
< 1000 | CC1(CN)CCN(c2cnc3c(Oc4ccnc(N)c4Cl)n[nH]c3n2)CC1 [Compound 48]
< 1000 | Cc1nccc(Oc2n[nH]c3nc(N4CCC(O)(CN)CC4)cnc23)c1Cl [Compound 49]
< 1000 | COc1nccc(Oc2n[nH]c3nc(N4CCC(C)(N)CC4)cnc23)c1Cl [Compound 50]
< 1000 | CC1(N)CCN(c2cnc3c(Oc4ccncc4C(F)(F)F)n[nH]c3n2)CC1 [Compound 51]
< 1000 | CC1(CN)CCN(c2cnc3c(Oc4ccnc(Cl)c4Cl)n[nH]c3n2)C1 (stereo not drawn) [Compound 52]
< 1000 | C[C@H]1C[C@H](N)CCN1c1cnc2c(Oc3ccnc(Cl)c3Cl)n[nH]c2n1 [Compound 53]
< 1000 | CC1(N)CCN(c2cnc3c(Oc4ccnc(Cl)c4Cl)n[nH]c3n2)CC1 [Compound 54]
< 1000 | CC1(N)CCN(c2cnc3c(Oc4ccnc(C(N)=O)c4Cl)n[nH]c3n2)CC1 [Compound 55]
< 1000 | CC1(CN)CCN(c2cnc3c(Oc4ccnc(Cl)c4Cl)n[nH]c3n2)CC1 [Compound 56]
< 1000 | NCC1(O)CCN(c2cnc3c(Oc4ccnc(Cl)c4Cl)n[nH]c3n2)CC1 [Compound 57]
1000 to 10000 | CC1(N)CCN(c2cnc3c(Oc4ccnc(NC5COC5)c4Cl)n[nH]c3n2)CC1 [Compound 58]
< 1000 | CC1(N)CCN(c2cnc3c(Oc4cc(Br)ncc4Cl)n[nH]c3n2)CC1 [Compound 59]
< 1000 | Cn1cc(-c2nccc(Oc3n[nH]c4nc(N5CCC(C)(N)CC5)cnc34)c2Cl)cn1 [Compound 60]
< 1000 | CC1(N)CCN(c2cnc3c(Oc4ccnc(-c5nccs5)c4Cl)n[nH]c3n2)CC1 [Compound 61]
< 1000 | CC1(N)CCN(c2cnc3c(Oc4ccnc(N5CCOCC5)c4Cl)n[nH]c3n2)CC1 [Compound 62]
≥ 10000 | COc1ccc(Cn2nc(Oc3ccnc(Cl)c3Cl)c3ncc(N4CC[C@@H](N)C[C@@H]4C)nc32)cc1 [Compound 63]
≥ 10000 | COc1ccc(Cn2nc(Oc3ccnc(Cl)c3Cl)c3ncc(N4CCC(O)(CN)CC4)nc32)cc1 [Compound 64]
< 1000 | CC1(N)CCN(c2cnc3c(N4CCCCc5ccccc54)n[nH]c3n2)CC1 [Compound 82]
